Here are results for 1 compound from patent US11813362B2, “Film-coated tablet comprising a triazine derivative for use in the treatment of diabetes” (Poxel, priority 2018, dated 2023).

Each structure is given as a SMILES string.

This data set can be described thus: Compatibility tests of imeglimin with excipients as 50:50 (w/w) binary mixture. The format is physicochemical. The source says: In a preferred embodiment, the binder consists of hydroxypropylcellulose. In other embodiments, it may comprise at least one other binder in addition to hydroxypropylcellulose, which may be selected from: microcrystalline cellulose, methylcellulose, ethylcellullose, hydroxyethylcellulose, hydroxypropylmethylcellulose (hypromellose), sodium carboxymethylcellulose (carmellose), gelatin, gum arabic, dextrin, maltodextrin, pregelatinized starch, gelatin, acacia gum, guar gum, sodium alginate, alginic acid, carbomer, polyvinyl alcohol and mixtures thereof. […] The binder(s) may represent from 1.5 to 4.5 wt. %, preferably from 3.5 to 4.5 wt. %, relative to the total weight of the tablet.
In addition to the binder(s), the tablet of this invention comprises at least one disintegrant. […] The disintegrant may thus be selected from the group consisting of: sodium croscarmellose, sodium carboxymethyl starch, hydroxypropylcellulose, calcium carboxymethylcellulose, microcrystalline cellulose, calcium carbonate, magnesium aluminum silicate, sodium starch glycolate, pregelatinized starch, sodium alginate, alginic acid, guar gum and their mixtures, for instance. Preferably, the disintegrant comprises, or preferably is, sodium croscarmellose. The disintegrant(s) may represent from 1.5 to 3 wt. %, preferably from 1.8 to 2.2 wt. %, relative to the total weight of the tablet.

Regarding `C[C@@H]1NC(=N)N=C(N(C)C)N1.Cl` [imeglimin, (+)-2-amino-3,6-dihydro-4-dimethylamino-6-methyl-1,3,5-triazine hydrochloride], the “formation of degradation products (compatibility)” value (50:50 (w/w) binary mixture with crospovidone) is on record as “degradation products are formed” and the “formation of degradation products (compatibility)” value (50:50 (w/w) binary mixture with polyvinylpyrrolidone (povidone)) is given as “degradation products are formed”.
